This note sets out measurements from patent publication US20240246967A1, “AXL COMPOUNDS” (ARCUS BIOSCIENCES, INC., priority 2021, published 2024).

A word on the IC50: it is the midpoint of a concentration-inhibition curve.

Some results are limits rather than exact numbers.

For one assay, the target named is T1, human MER (Homo sapiens, UniProt Q12866).
T1 construct: purchased Invitrogen
T1 sequence (Q12866 21-999): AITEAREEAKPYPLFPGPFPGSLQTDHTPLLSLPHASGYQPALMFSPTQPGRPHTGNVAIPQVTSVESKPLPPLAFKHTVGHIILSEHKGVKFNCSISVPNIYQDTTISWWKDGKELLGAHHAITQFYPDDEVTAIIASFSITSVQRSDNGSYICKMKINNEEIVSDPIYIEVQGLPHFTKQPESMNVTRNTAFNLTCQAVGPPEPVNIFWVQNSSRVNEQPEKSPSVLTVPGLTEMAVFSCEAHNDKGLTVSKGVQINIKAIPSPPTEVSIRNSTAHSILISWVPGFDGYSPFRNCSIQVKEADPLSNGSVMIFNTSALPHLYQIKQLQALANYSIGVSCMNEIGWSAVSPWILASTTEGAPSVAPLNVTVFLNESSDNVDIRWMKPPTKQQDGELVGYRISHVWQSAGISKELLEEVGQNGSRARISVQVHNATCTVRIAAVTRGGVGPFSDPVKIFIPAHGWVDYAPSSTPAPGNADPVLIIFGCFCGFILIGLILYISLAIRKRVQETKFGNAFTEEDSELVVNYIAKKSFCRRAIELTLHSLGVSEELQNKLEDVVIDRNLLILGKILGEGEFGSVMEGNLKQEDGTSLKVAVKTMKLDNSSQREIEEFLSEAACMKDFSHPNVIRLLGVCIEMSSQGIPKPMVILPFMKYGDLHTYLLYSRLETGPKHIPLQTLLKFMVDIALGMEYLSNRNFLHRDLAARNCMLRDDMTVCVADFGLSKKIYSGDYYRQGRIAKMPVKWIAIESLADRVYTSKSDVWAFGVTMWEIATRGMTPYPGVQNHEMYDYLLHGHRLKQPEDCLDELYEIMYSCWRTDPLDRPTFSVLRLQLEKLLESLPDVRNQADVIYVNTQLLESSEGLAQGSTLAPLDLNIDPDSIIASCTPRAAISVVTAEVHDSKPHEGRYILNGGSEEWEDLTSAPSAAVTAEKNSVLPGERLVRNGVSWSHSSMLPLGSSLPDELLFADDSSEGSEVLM
As to the kind of experiment: HTRF KinEASE-TK biochemical potency assay, MER. Particulars: 1 nM MER, 700 μM ATP, 800 nM TK Substrate-biotin. A digest of the protocol:
(§1)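 Enzyme (final 5 nM AXL; 1 nM TYRO3 or MER) plus compound, 1 h RT → add biotinylated TK substrate (800 nM final) and ATP (700 μM final) → 2 h RT → stop into HTRF detection mix → read 665/620 nm. Activity normalised to DMSO and pre-stopped blanks.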
On the technique in general: TR-FRET usually uses a lanthanide donor and a delayed reading to cut background.

The target of another assay is T2, human TYRO3 (Homo sapiens, UniProt Q06418).
T2 construct: purchased Invitrogen
T2 sequence (Q06418 41-890): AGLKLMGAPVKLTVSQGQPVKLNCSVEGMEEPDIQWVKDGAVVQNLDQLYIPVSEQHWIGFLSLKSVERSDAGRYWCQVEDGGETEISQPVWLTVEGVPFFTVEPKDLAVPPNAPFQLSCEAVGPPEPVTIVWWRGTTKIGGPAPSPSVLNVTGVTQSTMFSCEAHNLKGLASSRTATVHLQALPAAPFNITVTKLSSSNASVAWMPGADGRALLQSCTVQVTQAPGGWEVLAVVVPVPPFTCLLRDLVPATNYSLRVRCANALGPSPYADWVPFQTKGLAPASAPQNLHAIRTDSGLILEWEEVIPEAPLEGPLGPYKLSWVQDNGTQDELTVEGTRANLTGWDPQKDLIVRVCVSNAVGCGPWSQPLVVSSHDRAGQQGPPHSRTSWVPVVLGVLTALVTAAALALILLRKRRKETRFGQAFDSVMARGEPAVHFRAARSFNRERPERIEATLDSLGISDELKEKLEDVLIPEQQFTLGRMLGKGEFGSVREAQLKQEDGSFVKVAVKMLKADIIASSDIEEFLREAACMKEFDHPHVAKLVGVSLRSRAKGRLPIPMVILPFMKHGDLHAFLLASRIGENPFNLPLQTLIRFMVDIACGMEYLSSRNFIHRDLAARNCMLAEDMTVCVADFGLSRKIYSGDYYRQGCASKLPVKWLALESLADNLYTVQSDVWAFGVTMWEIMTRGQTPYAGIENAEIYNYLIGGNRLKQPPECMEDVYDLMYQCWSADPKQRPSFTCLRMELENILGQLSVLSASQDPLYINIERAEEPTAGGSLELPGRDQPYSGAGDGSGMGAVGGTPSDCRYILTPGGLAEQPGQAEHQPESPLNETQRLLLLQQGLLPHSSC
As to the kind of experiment: HTRF KinEASE-TK biochemical potency assay, TYRO3. The note with it: 1 nM TYRO3, 700 μM ATP, 800 nM TK Substrate-biotin. A digest of the protocol:
as §1

Take `CCC1(N2CCC[C@H]2CO)CCc2ccc(-c3cnc4[nH]nc(-c5ccc(C(N)=O)c(Cl)c5)c4c3)cc2CC1` (stereo partly drawn) [Example 75, 2-Chloro-4-(5-{7-ethyl-7-[(2S)-2-(hydroxymethyl)pyrrolidin-1-yl]-6,7,8,9-tetrahydro-5H-benzo[7]annulen-2-yl}-1H-pyrazolo[3,4-b]pyridin-3-yl)benzamide]: the concentration for half-maximal inhibition (IC50) against human MER and on human TYRO3 was less than 100 nM each time.
On to `NS(=O)(=O)c1ccc(-c2n[nH]c3ncc(-c4ccc5c(c4)CCN(C4CCCC4)CC5)cc23)cc1Cl` [Example 92, 2-Chloro-4-(5-(3-cyclopentyl-2,3,4,5-tetrahydro-1H-benzo[d]azepin-7-yl)-1H-pyrazolo[3,4-b]pyridin-3-yl)benzenesulfonamide], for which the IC50 on human MER and at human TYRO3 was 100 to 1000 nM in each case.
`C[C@@H]1CCCN1C1(C)CCc2ccc(-c3cnc4[nH]nc(-c5ccc(C(=O)N6CCC6)cc5)c4c3)cc2CC1` (stereo partly drawn) [Example 76, (2R)-1-(2-{3-[4-(Azetidine-1-carbonyl)phenyl]-1H-pyrazolo[3,4-b]pyridin-5-yl}-7-methyl-6,7,8,9-tetrahydro-5H-benzo[7]annulen-7-yl)-2-methylpyrrolidine]: the IC50 on human MER and at human TYRO3 was 100 to 1000 nM in each case.
For `C[C@@H]1CCCN1C1CCc2ccc(-c3cnc4[nH]nc(-c5cnc(C(C)(C)O)c(Cl)c5)c4c3)cc2CC1` (stereo partly drawn) [Example 65, 2-[3-Chloro-5-(5-{7-[(2R)-2-methylpyrrolidin-1-yl]-6,7,8,9-tetrahydro-5H-benzo[7]annulen-2-yl}-1H-pyrazolo[3,4-b]pyridin-3-yl)pyridin-2-yl]propan-2-ol], the 50% inhibitory concentration (IC50) against human MER and on human TYRO3 was 100 to 1000 nM each time.
Take `NC(=O)c1ccc(-c2n[nH]c3ncc(-c4ccc5c(c4)CCC(N4CCCC4)CC5)cc23)cc1F` (stereo not drawn) [Example 81, 2-Fluoro-4-(5-(7-(pyrrolidin-1-yl)-6,7,8,9-tetrahydro-5H-benzo[7]annulen-2-yl)-1H-pyrazolo[3,4-b]pyridin-3-yl)benzamide]: the IC50 is 100 to 1000 nM against human MER and less than 100 nM against human TYRO3.
On the same counts, the results for `C[C@@H]1CCCN1C1(C)CCc2ccc(-c3cnc4[nH]nc(-c5ccc(S(=O)(=O)C6CC6)cc5)c4c3)cc2CC1` (stereo partly drawn) [Example 1, 3-(4-(Cyclopropylsulfonyl)phenyl)-5-(7-methyl-7-((R)-2-methylpyrrolidin-1-yl)-6,7,8,9-tetrahydro-5H-benzo[7]annulen-2-yl)-1H-pyrazolo[3,4-b]pyridine] are 100 to 1000 nM and less than 100 nM.
On the same counts, the results for `O=C(c1ccc(-c2n[nH]c3ncc(-c4ccc5c(c4)CC[C@@H](N4CCCC4)CC5)cc23)cc1Cl)N1CCNCC1` [Example 82, (S)-(2-Chloro-4-(5-(7-(pyrrolidin-1-yl)-6,7,8,9-tetrahydro-5H-benzo[7]annulen-2-yl)-1H-pyrazolo[3,4-b]pyridin-3-yl)phenyl)(piperazin-1-yl)methanone] are less than 100 nM and less than 100 nM.
For `CCC1(N2CCC[C@H]2C)CCc2ccc(-c3cnc4[nH]nc(-c5ccc(C(N)=O)c(Cl)c5)c4c3)cc2CC1` (stereo partly drawn) [Example 73, 2-Chloro-4-(5-{7-ethyl-7-[(2R)-2-methylpyrrolidin-1-yl]-6,7,8,9-tetrahydro-5H-benzo[7]annulen-2-yl}-1H-pyrazolo[3,4-b]pyridin-3-yl)benzamide], in that order: less than 100 nM and less than 100 nM.
As to `C[C@@H]1CCCN1C1(C)CCc2ccc(-c3cnc4[nH]nc(-c5ccc(S(N)(=O)=O)c(Cl)c5)c4c3)cc2CC1` (stereo partly drawn) [Example 93, 2-Chloro-4-(5-(7-methyl-7-((R)-2-methylpyrrolidin-1-yl)-6,7,8,9-tetrahydro-5H-benzo[7]annulen-2-yl)-1H-pyrazolo[3,4-b]pyridin-3-yl)benzenesulfonamide], the half-inhibitory concentration (IC50) against human MER and against human TYRO3 was less than 100 nM in each case.
